This passage reports IC50 results from patent US9856220B2 (AbbVie Deutschland GmbH & Co. KG, priority 2011, dated 2018).

The target of this assay is PDE10A (Homo sapiens (Human), UniProt Q9Y233). In words: Measurement of PDE activity (recombinant PDE, cAMP HTRF). The assay is classed as biochemical. The note with it: 20 nM cyclic nucleotide substrate, 60 minutes at 29 C. The method, then:
a) Measurement of PDE Activity
The recombinant PDE proteins are used in in vitro enzymatic reaction for measurement of PDE activity. These recombinant proteins, including PDE10A (human, rat and mouse PDE10) and isoforms of PDEs 1, 3, 4, and 5, were purchased from commercial vendor BPS Bioscience. The enzymatic activity of PDEs was determined by cAMP measurement kit from CisBio (IBA) using HTRF technology.
The PDE enzymatic reaction was carried out in assay buffer (20 mM Tris-HCl pH7.5, 10 mM MgCl2, 0.1% bovine serum albumin) containing enzyme and substrate. […] The substrate cyclic nucleotide (cAMP or cGMP) concentration used in the assay was 20 nM for PDE10, and 100 nM for other PDEs. The inhibitory effect of compound was determined by incubating various concentration of inhibitor in the enzymatic assay. […] Next, the compound at varying concentration was mixed with PDE enzyme. The reaction was initiated by addition of cyclic nucleotide substrate, and incubated for 60 minutes at 29 C. The reaction was stopped by addition of lysis buffer from assay kit. The cAMP-d2 and anti-cAMP cryptate in the lysis buffer detected the level of cAMP left from the PDE hydrolysis reaction. […] Thus, IC50 value of inhibitor can be obtained by plotting inhibitor concentration against PDE activity at that concentration.
For orientation: TR-FRET usually uses a lanthanide donor and a delayed reading to cut background.

A value given as a limit tells only on which side of the number the result lay.

Sequence of PDE10A (Q9Y233 whole entry, species assumed): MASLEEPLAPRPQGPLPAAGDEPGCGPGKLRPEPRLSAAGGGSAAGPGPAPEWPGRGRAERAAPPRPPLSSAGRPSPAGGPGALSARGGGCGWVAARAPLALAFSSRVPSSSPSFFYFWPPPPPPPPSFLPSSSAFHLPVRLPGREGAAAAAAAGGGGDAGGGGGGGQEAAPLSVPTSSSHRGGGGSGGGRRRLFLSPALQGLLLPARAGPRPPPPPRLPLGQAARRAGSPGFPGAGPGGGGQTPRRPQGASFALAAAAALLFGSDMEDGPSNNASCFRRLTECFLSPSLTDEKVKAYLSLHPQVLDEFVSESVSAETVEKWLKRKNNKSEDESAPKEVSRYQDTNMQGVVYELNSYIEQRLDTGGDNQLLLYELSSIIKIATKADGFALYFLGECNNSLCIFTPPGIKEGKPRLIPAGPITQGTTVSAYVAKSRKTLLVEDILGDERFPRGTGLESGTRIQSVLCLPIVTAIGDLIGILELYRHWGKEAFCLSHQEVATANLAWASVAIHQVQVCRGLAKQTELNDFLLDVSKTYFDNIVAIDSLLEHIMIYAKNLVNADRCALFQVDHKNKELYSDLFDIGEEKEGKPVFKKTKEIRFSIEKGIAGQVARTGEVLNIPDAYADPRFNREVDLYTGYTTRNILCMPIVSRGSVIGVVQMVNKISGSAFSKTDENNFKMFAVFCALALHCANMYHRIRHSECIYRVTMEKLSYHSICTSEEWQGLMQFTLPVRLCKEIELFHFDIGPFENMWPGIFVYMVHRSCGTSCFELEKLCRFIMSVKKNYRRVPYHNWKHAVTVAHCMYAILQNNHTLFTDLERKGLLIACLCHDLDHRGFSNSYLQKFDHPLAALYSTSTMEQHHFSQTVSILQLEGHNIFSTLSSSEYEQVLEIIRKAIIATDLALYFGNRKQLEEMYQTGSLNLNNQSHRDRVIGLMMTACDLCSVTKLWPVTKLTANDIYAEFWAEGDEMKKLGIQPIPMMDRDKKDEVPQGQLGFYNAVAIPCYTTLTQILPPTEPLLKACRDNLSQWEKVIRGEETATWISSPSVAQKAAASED

In the case of `CCn1cc(C(=O)NCc2ccc(C)cc2OCC2CCCO2)c2cc(OC)c(OC)cc2c1=O` (stereo not drawn) [Example 305, 2-Ethyl-6,7-dimethoxy-N-(4-methyl-2-((tetrahydrofuran-2-yl)methoxy)benzyl)-1-oxo-1,2-dihydroisoquinoline-4-carboxamide], the IC50 fell in the range of 200 to 500 nM.

Take `CCn1cc(C(=O)Nc2ccccc2)c2cc(OC)c(OC)cc2c1=O` [Example 151, 2-Ethyl-6,7-dimethoxy-1-oxo-N-phenyl-1,2-dihydroisoquinoline-4-carboxamide]: the IC50 was in the range of 200 to 500 nM. With `CCn1cc(C(=O)NCc2ccc(F)cc2)c2cc(OC)c(OC)cc2c1=O` [Example 32, 2-Ethyl-6,7-dimethoxy-1-oxo-1,2-dihydro-isoquinoline-4-carboxylic acid 4-fluoro-benzylamide], the IC50 is 200 to 500 nM. As for `CCC(CC)n1cc(C(=O)NC2COc3ccccc32)c2cc(OC)c(OC)cc2c1=O` (stereo not drawn) [Example 194, 2-(1-Ethyl-propyl)-6,7-dimethoxy-1-oxo-1,2-dihydro-isoquinoline-4-carboxylic acid (2,3-dihydro-benzofuran-3-yl)-amide], the figure is below 100 nM; as for `CCn1cc(C(=O)NC2CCc3cc(C)ccc32)c2cc(OC)c(OC)cc2c1=O` (stereo not drawn) [Example 175, 2-Ethyl-6,7-dimethoxy-N-(5-methyl-2,3-dihydro-1H-inden-1-yl)-1-oxo-1,2-dihydroisoquinoline-4-carboxamide], 200 to 500 nM; as for `CCC(CC)n1cc(C(=O)NC2CCc3cc(C)ccc32)c2cc(OC)c(OC)cc2c1=O` (stereo not drawn) [Example 253, 6,7-Dimethoxy-N-(5-methyl-2,3-dihydro-1H-inden-1-yl)-1-oxo-2-(pentan-3-yl)-1,2-dihydroisoquinoline-4-carboxamide], below 100 nM.

`CCn1cc(C(=O)Nc2cccc(C)c2)c2cc(OC)c(OC)cc2c1=O` [Example 145, 2-Ethyl-6,7-dimethoxy-1-oxo-N-m-tolyl-1,2-dihydroisoquinoline-4-carboxamide]: the IC50 lay in the range of 200 to 500 nM. As for `CCn1cc(C(=O)NCc2cccc(Cl)c2)c2cc(OC)c(OC)cc2c1=O` [Example 142, N-(3-Chlorobenzyl)-2-ethyl-6,7-dimethoxy-1-oxo-1,2-dihydroisoquinoline-4-carboxamide], the figure is 100 to 200 nM; as for `CCn1cc(C(=O)NCc2cccc(C)c2)c2cc(OC)c(OC)cc2c1=O` [Example 153], 100 to 200 nM. The value for `CCC(CC)n1cc(C(=O)NC2CCc3c(C)cccc32)c2cc(OC)c(OC)cc2c1=O` (stereo not drawn) [Example 254, 6,7-Dimethoxy-N-(4-methyl-2,3-dihydro-1H-inden-1-yl)-1-oxo-2-(pentan-3-yl)-1,2-dihydroisoquinoline-4-carboxamide] was below 100 nM; that for `CCn1cc(C(=O)NCc2ccccc2F)c2cc(OC)c(OC)cc2c1=O` [Example 30, 2-Ethyl-6,7-dimethoxy-1-oxo-1,2-dihydro-isoquinoline-4-carboxylic acid 2-fluoro-benzylamide] was 200 to 500 nM. As for `CCn1cc(C(=O)NCc2ccc(F)c(F)c2)c2cc(OC)c(OC)cc2c1=O` [Example 36, 2-Ethyl-6,7-dimethoxy-1-oxo-1,2-dihydro-isoquinoline-4-carboxylic acid 3,4-difluoro-benzylamide], the figure is 100 to 200 nM; as for `CCn1cc(C(=O)NCc2ccc(C)cc2OC(C)(C)CC)c2cc(OC)c(OC)cc2c1=O` [Example 277, N-[[2-(1,1-Dimethylpropoxy)-4-methyl-phenyl]methyl]-2-ethyl-6,7-dimethoxy-1-oxo-isoquinoline-4-carboxamide], 200 to 500 nM; as for `CCn1cc(C(=O)NCc2ccc(C)cc2OC(C)C)c2cc(OC)c(OC)cc2c1=O` [Example 302, 2-Ethyl-N-(2-isopropoxy-4-methylbenzyl)-6,7-dimethoxy-1-oxo-1,2-dihydroisoquinoline-4-carboxamide], 200 to 500 nM. `CCn1cc(C(=O)NC(C)c2ccccc2)c2cc(OC)c(OC)cc2c1=O` (stereo not drawn) [Example 29, 2-Ethyl-6,7-dimethoxy-1-oxo-1,2-dihydro-isoquinoline-4-carboxylic acid (1-phenyl-ethyl)-amide]: the IC50 fell in the range of 200 to 500 nM.

As to `CCn1cc(C(=O)NCc2ccccn2)c2cc(OC)c(OC)cc2c1=O` [Example 149, 2-Ethyl-6,7-dimethoxy-1-oxo-N-(pyridin-2-ylmethyl)-1,2-dihydroisoquinoline-4-carboxamide], the IC50 lay in the range of 200 to 500 nM. Regarding `CCCCNC(=O)c1cn(CCc2ccc3ccccc3n2)c(=O)c2cc(OC)c(OC)cc12` [Example 322, N-Butyl-6,7-dimethoxy-1-oxo-2-[2-(2-quinolyl)ethyl]isoquinoline-4-carboxamide; 2,2,2-trifluoroacetic acid], the IC50 is below 100 nM. As to `CCn1cc(C(=O)NCc2ccccc2Cl)c2cc(OC)c(OC)cc2c1=O` [Example 162, N-(2-Chlorobenzyl)-2-ethyl-6,7-dimethoxy-1-oxo-1,2-dihydroisoquinoline-4-carboxamide], the IC50 lay in the range of 200 to 500 nM.

Take `CCn1cc(C(=O)NCc2cccc(F)c2F)c2cc(OC)c(OC)cc2c1=O` [Example 33, 2-Ethyl-6,7-dimethoxy-1-oxo-1,2-dihydro-isoquinoline-4-carboxylic acid 2,3-difluoro-benzylamide]: the IC50 was in the range of 200 to 500 nM. In the case of `CCC(CC)n1cc(C(=O)NCc2cc(C)sc2C)c2cc(OC)c(OC)cc2c1=O` [Example 242, N-((2,5-dimethylthiophen-3-yl)methyl)-6,7-dimethoxy-1-oxo-2-(pentan-3-yl)-1,2-dihydroisoquinoline-4-carboxamide], the IC50 is 200 to 500 nM.

With `CCC(CC)n1cc(C(=O)NCc2cc(F)cc(F)c2)c2cc(OC)c(OC)cc2c1=O` [Example 188, 2-(1-Ethyl-propyl)-6,7-dimethoxy-1-oxo-1,2-dihydro-isoquinoline-4-carboxylic acid 3,5-difluoro-benzylamide], the IC50 was 100 to 200 nM.

For the compound `CCn1cc(C(=O)NCc2ccccc2OC)c2cc(OC)c(OC)cc2c1=O` [Example 140], the IC50 was in the range of 200 to 500 nM. As for `CCC(CC)n1nc(C(=O)NC2CCc3ncccc32)c2cc(OC)c(OC)cc2c1=O` (stereo not drawn) [Example 233, 3-(1-Ethyl-propyl)-6,7-dimethoxy-4-oxo-3,4-dihydro-phthalazine-1-carboxylic acid (6,7-dihydro-5H-[1]pyrindin-5-yl)-amide], the figure is 100 to 200 nM; as for `CCn1cc(C(=O)NCc2cccc(F)c2)c2cc(OC)c(OC)cc2c1=O` [Example 31, 2-Ethyl-6,7-dimethoxy-1-oxo-1,2-dihydro-isoquinoline-4-carboxylic acid 3-fluoro-benzylamide], 200 to 500 nM; as for `CCn1cc(C(=O)Nc2ccc(F)cc2)c2cc(OC)c(OC)cc2c1=O` [Example 156, 2-Ethyl-N-(4-fluorophenyl)-6,7-dimethoxy-1-oxo-1,2-dihydroisoquinoline-4-carboxamide], 200 to 500 nM. As for `CCC(CC)n1cc(C(=O)NCc2ccncc2)c2cc(OC)c(OC)cc2c1=O` [Example 261, 6,7-Dimethoxy-1-oxo-2-(pentan-3-yl)-N-(pyridin-4-ylmethyl)-1,2-dihydroisoquinoline-4-carboxamide], the figure is 200 to 500 nM; as for `CCn1cc(C(=O)NC2CCc3ccc(OC)cc32)c2cc(OC)c(OC)cc2c1=O` (stereo not drawn) [Example 176, 2-Ethyl-6,7-dimethoxy-N-(6-methoxy-2,3-dihydro-1H-inden-1-yl)-1-oxo-1,2-dihydroisoquinoline-4-carboxamide], 200 to 500 nM. Consider `COc1cc2c(C(=O)NC3CCc4ccccc43)cn(CCc3ccc4ccccc4n3)c(=O)c2cc1OC` (stereo not drawn) [Example 323, N-Indan-1-yl-6,7-dimethoxy-1-oxo-2-[2-(2-quinolyl)ethyl]isoquinoline-4-carboxamide; 2,2,2-trifluoroacetic acid], for which the IC50 lay in the range of 200 to 500 nM. As for `CCC(CC)n1cc(C(=O)NC2CCc3sccc32)c2cc(OC)c(OC)cc2c1=O` (stereo not drawn) [Example 193, 2-(1-Ethyl-propyl)-6,7-dimethoxy-1-oxo-1,2-dihydro-isoquinoline-4-carboxylic acid (5,6-dihydro-4H-cyclopenta[b]thiophen-4-yl)-amide], the IC50 is below 100 nM.

With `CCC(CC)n1cc(C(=O)NCc2ccc(C)cc2)c2cc(OC)c(OC)cc2c1=O` [Example 262, 6,7-Dimethoxy-N-(4-methylbenzyl)-1-oxo-2-(pentan-3-yl)-1,2-dihydroisoquinoline-4-carboxamide], the IC50 was 100 to 200 nM.

In the case of `CCn1cc(C(=O)NCc2cccnc2)c2cc(OC)c(OC)cc2c1=O` [Example 148, 2-Ethyl-6,7-dimethoxy-1-oxo-N-(pyridin-3-ylmethyl)-1,2-dihydroisoquinoline-4-carboxamide], the IC50 fell in the range of 200 to 500 nM.

With `CCn1cc(C(=O)NCc2c(F)cccc2F)c2cc(OC)c(OC)cc2c1=O` [Example 35, 2-Ethyl-6,7-dimethoxy-1-oxo-1,2-dihydro-isoquinoline-4-carboxylic acid 2,6-difluoro-benzylamide], the IC50 is 200 to 500 nM. As for `CCC(CC)n1cc(C(=O)NCc2cc(C)cs2)c2cc(OC)c(OC)cc2c1=O` [Example 257, 6,7-Dimethoxy-N-((4-methylthiophen-2-yl)methyl)-1-oxo-2-(pentan-3-yl)-1,2-dihydroisoquinoline-4-carboxamide], the figure is 100 to 200 nM.

The term IC50 denotes the concentration that inhibits the measured activity by half.
